Experimental data: patent publication US20210395239A1 (Hoffmann-La Roche Inc., priority 2018, published 2021)
pIC50: −log10 of the molar value.

These compounds were tested against T1, human TLR7 (Homo sapiens, UniProt Q9NYK1) (assay: HEK293-Blue-hTLR-7 cells assay (SEAP reporter, R848 stimulation)). Conditions: HEK293-Blue-hTLR7 cells, R848, 20 hrs; read-out: HEK/hTLR7 IC50.
T1 construct: host or cells: HEK293 (HEK-Blue hTLR7)
T1 sequence (Q9NYK1 27-1049): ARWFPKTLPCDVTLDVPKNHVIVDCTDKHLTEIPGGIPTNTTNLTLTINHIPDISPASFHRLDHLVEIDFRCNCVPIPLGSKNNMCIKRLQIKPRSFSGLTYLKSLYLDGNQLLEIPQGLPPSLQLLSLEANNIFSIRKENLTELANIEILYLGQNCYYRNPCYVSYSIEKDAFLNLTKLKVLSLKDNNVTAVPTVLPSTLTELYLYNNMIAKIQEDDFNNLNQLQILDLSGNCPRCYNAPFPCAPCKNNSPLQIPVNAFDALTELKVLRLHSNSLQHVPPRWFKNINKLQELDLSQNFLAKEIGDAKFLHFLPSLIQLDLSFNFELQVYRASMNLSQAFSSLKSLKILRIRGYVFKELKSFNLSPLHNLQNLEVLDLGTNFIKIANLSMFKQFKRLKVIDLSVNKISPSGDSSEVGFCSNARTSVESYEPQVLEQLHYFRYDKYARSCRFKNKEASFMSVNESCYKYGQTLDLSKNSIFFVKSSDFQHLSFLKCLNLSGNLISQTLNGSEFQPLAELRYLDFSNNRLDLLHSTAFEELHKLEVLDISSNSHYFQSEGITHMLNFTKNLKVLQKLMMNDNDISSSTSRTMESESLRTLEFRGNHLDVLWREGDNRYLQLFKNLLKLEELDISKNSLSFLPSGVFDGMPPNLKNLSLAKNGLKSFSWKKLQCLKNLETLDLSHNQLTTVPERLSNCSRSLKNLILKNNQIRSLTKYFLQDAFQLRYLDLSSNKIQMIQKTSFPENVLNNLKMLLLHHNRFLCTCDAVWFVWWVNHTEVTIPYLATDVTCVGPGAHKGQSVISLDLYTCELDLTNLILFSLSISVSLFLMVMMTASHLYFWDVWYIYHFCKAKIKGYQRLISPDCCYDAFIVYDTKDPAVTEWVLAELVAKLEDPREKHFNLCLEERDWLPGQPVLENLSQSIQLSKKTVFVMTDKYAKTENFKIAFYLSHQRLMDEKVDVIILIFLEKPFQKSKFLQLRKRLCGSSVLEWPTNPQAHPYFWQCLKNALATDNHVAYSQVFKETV
Assay type: cell-based
Source text: HEK293-Blue-hTLR-7 Cells Assay:
A stable HEK293-Blue-hTLR-7 cell line was purchased from InvivoGen (Cat. #: hkb-ht1r7, San Diego, Calif., USA). These cells were originally designed for studying the stimulation of human TLR7 by monitoring the activation of NF-κB. A SEAP (secreted embryonic alkaline phosphatase) reporter gene was placed under the control of the IFN-β minimal promoter fused to five NF-κB and AP-1-binding sites. The SEAP was induced by activating NF-κB and AP-1 via stimulating HEK-Blue hTLR7 cells with TLR7 ligands. Therefore the reporter expression was declined by TLR7 antagonist under the stimulation of a ligand, such as R848 (Resiquimod), for incubation of 20 hrs. The cell culture supernatant SEAP reporter activity was determined using QUANTI-Blue™ kit (Cat. #: rep-qb1, Invivogen, San Diego, Ca, USA) at a wavelength of 640 nm, a detection medium that turns purple or blue in the presence of alkaline phosphatase.
HEK293-Blue-hTLR7 cells were incubated at a density of […] cells/mL in a volume of 170 μL in a 96-well plate in Dulbecco's Modified Eagle's medium (DMEM) containing 4.5 g/L glucose, 50 U/mL penicillin, […], […], 2 mM L-glutamine, 10% (v/v) heat-inactivated fetal bovine serum with addition of 20 μL test compound in a serial dilution in the presence of final DMSO at 1% and 10 μL of 20 uM R848 in above DMEM, perform incubation under 37° C. in a CO2 incubator for 20 hrs. Then 20 μL of the supernatant from each well was incubated with 180 μL Quanti-blue substrate solution at 37° C. for 2 hrs and the absorbance was read at 620˜655 nm using a spectrophotometer. The signaling pathway that TLR7 activation leads to downstream NF-κB activation has been widely accepted, and therefore similar reporter assay was modified for evaluating TLR7 antagonist.

SMILES | pIC50
CO[C@H]1CN(c2nc(C)cc(N3CCN(C[C@H]4CN(c5ccc(C#N)c6nccnc56)C[C@@H](C)O4)CC3)n2)C[C@@H]1N [Example 106, 8-[(2S,6R)-2-[[4-[2-[(3S,4S)-3-amino-4-methoxy-pyrrolidin-1-yl]-6-methyl-pyrimidin-4-yl]piperazin-1-yl]methyl]-6-methyl-morpholin-4-yl]quinoxaline-5-carbonitrile] | 8.05
C[C@@H]1CN(c2ccc(C#N)c3nccnc23)C[C@H](CN2CCN(c3ccnc(N4C[C@H](N)[C@@H](F)C4)n3)CC2)O1 [Example 107, 8-[(2S,6R)-2-[[4-[2-[(3S,4S)-3-amino-4-fluoro-pyrrolidin-1-yl]pyrimidin-4-yl]piperazin-1-yl]methyl]-6-methyl-morpholin-4-yl]quinoxaline-5-carbonitrile] | 8.10
C[C@@H]1CN(c2ccc(C#N)c3nccnc23)C[C@H](CN2CCN(c3ccnc(N4C[C@@H](N)[C@@H](F)C4)n3)CC2)O1 [Example 108, 8-[(2S,6R)-2-[[4-[2-[(3R,4S)-3-amino-4-fluoro-pyrrolidin-1-yl]pyrimidin-4-yl]piperazin-1-yl]methyl]-6-methyl-morpholin-4-yl]quinoxaline-5-carbonitrile] | 8.30
COC1CCN(c2nccc(N3CCN(C[C@H]4CN(c5ccc(C#N)c6ncccc56)C[C@@H](C)O4)CC3)n2)CC1N (stereo partly drawn) [Example 109, 5-[(2S,6R)-2-[[4-[2-(3-amino-4-methoxy-1-piperidyl)pyrimidin-4-yl]piperazin-1-yl]methyl]-6-methyl-morpholin-4-yl]quinoline-8-carbonitrile] | 7.80
C[C@@H]1CN(c2ccc(C#N)c3ncccc23)C[C@H](CN2CCN(c3ccnc(N4C[C@H](N)[C@@H](F)C4)n3)CC2)O1 [Example 110, 5-[(2S,6R)-2-[[4-[2-[(3S,4S)-3-amino-4-fluoro-pyrrolidin-1-yl]pyrimidin-4-yl]piperazin-1-yl]methyl]-6-methyl-morpholin-4-yl]quinoline-8-carbonitrile] | 7.85
C[C@@H]1CN(c2ccc(C#N)c3nccnc23)C[C@H](CN2CCN(c3ccnc(N4CC[C@H](N)[C@H](F)C4)n3)CC2)O1 [Example 111, 8-[(2S,6R)-2-[[4-[2-[(3R,4S)-4-amino-3-fluoro-1-piperidyl]pyrimidin-4-yl]piperazin-1-yl]methyl]-6-methyl-morpholin-4-yl]quinoxaline-5-carbonitrile] | 8.52
Cc1cc(N2CCN(C[C@H]3CN(c4ccc(C#N)c5nccnc45)C[C@@H](C)O3)CC2)nc(N2CC(N)C2)n1 [Example 112, 8-[(2S,6R)-2-[[4-[2-(3-aminoazetidin-1-yl)-6-methyl-pyrimidin-4-yl]piperazin-1-yl]methyl]-6-methyl-morpholin-4-yl]quinoxaline-5-carbonitrile] | 8.40
C[C@@H]1CN(c2ccc(C#N)c3nccnc23)C[C@H](CN2CCN(c3ccnc(N4CC[C@@H](N)[C@H](F)C4)n3)CC2)O1 [Example 113, 8-[(2S,6R)-2-[[4-[2-[(3R,4R)-4-amino-3-fluoro-1-piperidyl]pyrimidin-4-yl]piperazin-1-yl]methyl]-6-methyl-morpholin-4-yl]quinoxaline-5-carbonitrile] | 8.10
Cc1cc(N2CCNCC2)nc(N2CCN(C[C@H]3CN(c4ccc(C#N)c5nccnc45)C[C@@H](C)O3)CC2)n1 [Example 114, 8-[(2R,6S)-2-methyl-6-[[4-(4-methyl-6-piperazin-1-yl-pyrimidin-2-yl)piperazin-1-yl]methyl]morpholin-4-yl]quinoxaline-5-carbonitrile] | 8.52
Cc1cc(N2C[C@@H](N)[C@@H](F)C2)nc(N2CCN(C[C@H]3CN(c4ccc(C#N)c5nccnc45)C[C@@H](C)O3)CC2)n1 [Example 115, 8-[(2S,6R)-2-[[4-[4-[(3R,4S)-3-amino-4-fluoro-pyrrolidin-1-yl]-6-methyl-pyrimidin-2-yl]piperazin-1-yl]methyl]-6-methyl-morpholin-4-yl]quinoxaline-5-carbonitrile] | 8.40
Cc1ccc(N2C[C@H](CN3CCN(c4nccc(N5CCNCC5)n4)CC3)O[C@H](C)C2)c2nccnc12 [Example 116, (2R,6S)-2-methyl-4-(8-methylquinoxalin-5-yl)-6-[[4-(4-piperazin-1-ylpyrimidin-2-yl)piperazin-1-yl]methyl]morpholine] | 7.68
Cc1ccc(N2C[C@H](CN3CCN(c4ccnc(N5CCNCC5)n4)CC3)O[C@H](C)C2)c2nccnc12 [Example 117, (2R,6S)-2-methyl-4-(8-methylquinoxalin-5-yl)-6-[[4-(2-piperazin-1-ylpyrimidin-4-yl)piperazin-1-yl]methyl]morpholine] | 7.89
C[C@@H]1CN(c2ccc(C#N)c3nccnc23)C[C@H](CN2CCN(c3nccc(N4CC(N)C4)n3)CC2)O1 [Example 118, 8-[(2S,6R)-2-[[4-[4-(3-aminoazetidin-1-yl)pyrimidin-2-yl]piperazin-1-yl]methyl]-6-methyl-morpholin-4-yl]quinoxaline-5-carbonitrile] | 8.40
C[C@@H]1CN(c2ccc(C#N)c3nccnc23)C[C@H](CN2CCN(c3nccc(N4C[C@@H](N)[C@H](F)C4)n3)CC2)O1 [Example 119, 8-[(2S,6R)-2-[[4-[4-[(3R,4R)-3-amino-4-fluoro-pyrrolidin-1-yl]pyrimidin-2-yl]piperazin-1-yl]methyl]-6-methyl-morpholin-4-yl]quinoxaline-5-carbonitrile] | 7.80
CO[C@@H]1CN(c2cc(C)nc(N3CCN(C[C@H]4CN(c5ccc(C#N)c6nccnc56)C[C@@H](C)O4)CC3)n2)C[C@@H]1N [Example 120, 8-[(2S,6R)-2-[[4-[4-[(3S,4R)-3-amino-4-methoxy-pyrrolidin-1-yl]-6-methyl-pyrimidin-2-yl]piperazin-1-yl]methyl]-6-methyl-morpholin-4-yl]quinoxaline-5-carbonitrile] | 8.30
CO[C@@H]1CN(c2cc(C)nc(N3CCN(C[C@H]4CN(c5ccc(C#N)c6nccnc56)C[C@@H](C)O4)CC3)n2)C[C@H]1N [Example 121, 8-[(2S,6R)-2-[[4-[4-[(3R,4R)-3-amino-4-methoxy-pyrrolidin-1-yl]-6-methyl-pyrimidin-2-yl]piperazin-1-yl]methyl]-6-methyl-morpholin-4-yl]quinoxaline-5-carbonitrile] | 8.10
CO[C@H]1CN(c2cc(C)nc(N3CCN(C[C@H]4CN(c5ccc(C#N)c6nccnc56)C[C@@H](C)O4)CC3)n2)C[C@H]1N [Example 122, 8-[(2S,6R)-2-[[4-[4-[(3R,4S)-3-amino-4-methoxy-pyrrolidin-1-yl]-6-methyl-pyrimidin-2-yl]piperazin-1-yl]methyl]-6-methyl-morpholin-4-yl]quinoxaline-5-carbonitrile] | 8.30
Cc1cc(N2CC(N)C2)nc(N2CCN(C[C@H]3CN(c4ccc(C#N)c5nccnc45)C[C@@H](C)O3)CC2)n1 [Example 123, 8-[(2S,6R)-2-[[4-[4-(3-aminoazetidin-1-yl)-6-methyl-pyrimidin-2-yl]piperazin-1-yl]methyl]-6-methyl-morpholin-4-yl]quinoxaline-5-carbonitrile] | 8.52
